Test: recombinant barcode read abundance after kanamycin selection (control-corrected) (log10(CPM+1)); higher = more efficient recombination; sequences stand for … in AGTGCAGAGAAAATCGGCCAGTTTTCTCTGCCTGCAGTCCGCATGCCGT…AGATTTATGCAGCGGACTGCCTTTCTCCCAAAGTGATAAACCGGACAGTATCATGGACCGGTTTTCCCGGTAATCCGTATTTGCAAGGTTGGTTTCACT; site = the 11-nt target
Method in brief: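 In a pooled screen in E. coli, targets were paired with target-binding loops of the IS621 bridge RNA. Each oligo carried a promoter, a target, a barcode and the first 104 bridge RNA bases driven by J23119, and was Gibson-cloned into a vector holding the remaining 73 bp and a T7-inducible recombinase before co-electroporation with a donor plasmid. Duplicate platings went onto chloramphenicol/ampicillin LB agar as the control or onto chloramphenicol/ampicillin/kanamycin with 0.1 mM IPTG. Recombination efficiency is the averaged, control-corrected count per million of barcodes at recombinant junctions, given as log10(CPM+1).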
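Also: IS621 recombinase and bridge RNA in Escherichia coli cells.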

| Sequence | recombinant barcode read abundance (log10) |
| --- | --- |
| GTAAGTGCTTGGGTTCTAACCTGTTGCCT (site GTAATTGCTAG) | 0.187 |
| GTAATGACTTGGGTTCTAACCTGTTGCCT (site GAAATGACTAG) | 0.403 |
| GTAATGACTTGGGTTCTAACCTGTTGCCT (site GCAATGACTAG) | 0.194 |
| GTAATGACTTGGGTTCTAACCTGTTGCCT (site GGAATGACTAG) | 0.105 |
| GTAATGACTTGGGTTCTAACCTGTTGCCT (site GTAATGACTAG) | 1.6 |
| GTAATGTCTTGGGTTCTAACCTGTTGCCT (site GAAATGTCTAG) | 0.284 |
| GTAATGTCTTGGGTTCTAACCTGTTGCCT (site GCAATGTCTAG) | 0.289 |
| GTAATGTCTTGGGTTCTAACCTGTTGCCT (site GGAATGTCTAG) | 0.112 |
| GTAATGTCTTGGGTTCTAACCTGTTGCCT (site GTAATGTCTAG) | 2.04 |
| GTACAATCTTGGGTTCTAACCTGTTGCCT (site ATACAATCTAG) | 0.947 |
| GTACAATCTTGGGTTCTAACCTGTTGCCT (site CTACAATCTAG) | 0.339 |
| GTACAATCTTGGGTTCTAACCTGTTGCCT (site GTACAATCTAG) | 1.43 |
| GTACAATCTTGGGTTCTAACCTGTTGCCT (site TTACAATCTAG) | 0.371 |
| GTACCTACTTGGGTTCTAACCTGTTGCTA (site CGACCTACTTA) | 0.0562 |
| GTACCTACTTGGGTTCTAACCTGTTGCTA (site GTACCTACTTA) | 1.33 |
| GTACGAGCTTGGGTTCTAACCTGTTGCCG (site GTACGAGCTCG) | 0.848 |
| GTACGAGCTTGGGTTCTAACCTGTTGCCG (site GTGTGAGCTCG) | 0.38 |
| GTACGTCCTTGGGTTCTAACCTGTTGCAT (site GTACGTCCTAA) | 0.133 |
| GTACGTCCTTGGGTTCTAACCTGTTGCAT (site GTACGTCCTAC) | 1.01 |
| GTACGTCCTTGGGTTCTAACCTGTTGCAT (site GTACGTCCTAG) | 0.52 |
| GTACGTCCTTGGGTTCTAACCTGTTGCAT (site GTACGTCCTAT) | 1 |
| GTACGTCCTTGGGTTCTAACCTGTTGCCT (site GTACGTCCTAA) | 0.112 |
| GTACGTCCTTGGGTTCTAACCTGTTGCCT (site GTACGTCCTAC) | 0.352 |
| GTACGTCCTTGGGTTCTAACCTGTTGCCT (site GTACGTCCTAG) | 0.482 |
| GTACGTCCTTGGGTTCTAACCTGTTGCCT (site GTACGTCCTAT) | 0.0848 |
| GTACTACCTTGGGTTCTAACCTGTTGCCG (site ACGGAGACTAT) | 0.198 |

| Sequence | recombinant barcode read abundance (log10) |
| --- | --- |
| GTACTACCTTGGGTTCTAACCTGTTGCCG (site GTACTACCTCG) | 1.14 |
| GTACTCTCTTGGGTTCTAACCTGTTGCAG (site CCGTCAACTAG) | 0.0592 |
| GTACTCTCTTGGGTTCTAACCTGTTGCAG (site GTACTCTCTCT) | 1.33 |
| GTAGACCCTTGGGTTCTAACCTGTTGCTG (site GTAGACCCTAC) | 1.29 |
| GTAGACCCTTGGGTTCTAACCTGTTGCTG (site GTAGACCCTCA) | 2.94 |
| GTAGAGTCTTGGGTTCTAACCTGTTGCTT (site GTAGAGTCTAA) | 2.41 |
| GTAGAGTCTTGGGTTCTAACCTGTTGCTT (site GTGGAGTCTAG) | 0.685 |
| GTAGCCACTTGGGTTCTAACCTGTTGCCT (site GTAGCCACTAG) | 2.37 |
| GTAGCCACTTGGGTTCTAACCTGTTGCCT (site GTCGCCACTAG) | 0.449 |
| GTAGCCACTTGGGTTCTAACCTGTTGCCT (site GTGGCCACTAG) | 0.791 |
| GTAGCCACTTGGGTTCTAACCTGTTGCCT (site GTTGCCACTAG) | 1.06 |
| GTAGGCGCTTGGGTTCTAACCTGTTGCCT (site GTAGGCGCTAG) | 1.96 |
| GTAGGCGCTTGGGTTCTAACCTGTTGCCT (site GTCGGCGCTAG) | 0.33 |
| GTAGGCGCTTGGGTTCTAACCTGTTGCCT (site GTGGGCGCTAG) | 0.441 |
| GTAGGCGCTTGGGTTCTAACCTGTTGCCT (site GTTGGCGCTAG) | 0.0331 |
| GTAGGGACTTGGGTTCTAACCTGTTGCCT (site GAAGGGACTAG) | 1.34 |
| GTAGGGACTTGGGTTCTAACCTGTTGCCT (site GCAGGGACTAG) | 0.806 |
| GTAGGGACTTGGGTTCTAACCTGTTGCCT (site GGAGGGACTAG) | 0.439 |
| GTAGGGACTTGGGTTCTAACCTGTTGCCT (site GTAGGGACTAG) | 1.97 |
| GTAGGGTCTTGGGTTCTAACCTGTTGCCT (site GTAGGGTCTAG) | 2.41 |
| GTAGGGTCTTGGGTTCTAACCTGTTGCCT (site TTGGGGTCTAG) | 0.324 |
| GTATACCCTTGGGTTCTAACCTGTTGCAT (site GTATACCCTAT) | 2.34 |
| GTATACCCTTGGGTTCTAACCTGTTGCAT (site GTATACCCTTG) | 0.224 |
| GTATCCACTTGGGTTCTAACCTGTTGCTA (site GTATCCACTTA) | 1.47 |
| GTATCCACTTGGGTTCTAACCTGTTGCTA (site GTATGCCCTTA) | 0.0561 |
| GTATCCTCTTGGGTTCTAACCTGTTGCAT (site GTATCCTCTAT) | 2.28 |

| Sequence | recombinant barcode read abundance (log10) |
| --- | --- |
| GTATCCTCTTGGGTTCTAACCTGTTGCAT (site GTATGCTCTAC) | 0.0984 |
| GTATCTCCTTGGGTTCTAACCTGTTGCGG (site GTATCTCCTCC) | 0.0723 |
| GTATCTCCTTGGGTTCTAACCTGTTGCGG (site GTCTCACCTCC) | 0.0668 |
| GTATCTCCTTGGGTTCTAACCTGTTGCTT (site GTATCTCCTAA) | 0.321 |
| GTATCTCCTTGGGTTCTAACCTGTTGCTT (site GTATTTCCTAA) | 0.136 |
| GTATGTGCTTGGGTTCTAACCTGTTGCAA (site CTATGTGCTTC) | 0.0841 |
| GTATGTGCTTGGGTTCTAACCTGTTGCAA (site GTATGTGCTTT) | 0.769 |
| GTCAAACCTTGGGTTCTAACCTGTTGCTT (site GACAAACCTAG) | 0.274 |
| GTCAAACCTTGGGTTCTAACCTGTTGCTT (site GTCAAACCTAA) | 0.46 |
| GTCAAAGCTTGGGTTCTAACCTGTTGCCA (site GTCAAAGCTTG) | 0.0767 |
| GTCAAAGCTTGGGTTCTAACCTGTTGCCA (site GTCACAGCTAG) | 0.407 |
| GTCAACCCTTGGGTTCTAACCTGTTGCTG (site GTCAAACCTCA) | 0.045 |
| GTCAACCCTTGGGTTCTAACCTGTTGCTG (site GTCAACCCTCA) | 2.49 |
| GTCAACCCTTGGGTTCTAACCTGTTGCTG (site GTCAAGCCTCA) | 0.32 |
| GTCAACCCTTGGGTTCTAACCTGTTGCTG (site GTCAATCCTCA) | 0.145 |
| GTCAATCCTTGGGTTCTAACCTGTTGCTG (site GTCAAACCTCA) | 0.00666 |
| GTCAATCCTTGGGTTCTAACCTGTTGCTG (site GTCAACCCTCA) | 0.288 |
| GTCAATCCTTGGGTTCTAACCTGTTGCTG (site GTCAAGCCTCA) | 0.193 |
| GTCAATCCTTGGGTTCTAACCTGTTGCTG (site GTCAATCCTCA) | 1.49 |
| GTCACCGCTTGGGTTCTAACCTGTTGCCT (site GTAACCGCTAG) | 0.409 |
| GTCACCGCTTGGGTTCTAACCTGTTGCCT (site GTCACCGCTAG) | 2.08 |
| GTCACCGCTTGGGTTCTAACCTGTTGCCT (site GTGACCGCTAG) | 0.129 |
| GTCACCGCTTGGGTTCTAACCTGTTGCCT (site GTTACCGCTAG) | 0.464 |
| GTCATGGCTTGGGTTCTAACCTGTTGCCT (site GTCAGGGCTAG) | 0.0945 |
| GTCATGGCTTGGGTTCTAACCTGTTGCCT (site GTCATGGCTAG) | 0.283 |
